Experimental data taken from US5883102A, “Pharmaceutically active compounds” (Astra Pharmaceuticals Limited, priority 1995, dated 1999).
Counter-ions that a name gives are not always drawn.

Molecular target: T1, human form of induced nitric oxide synthase (Homo sapiens, UniProt P35228)
T1 construct: Nitric oxide synthase is produced by cells in response to interferon; endogenous in cells; host or cells: DLD1 human colon adenocarcinoma cell line (European Collection of Animal Cell Culture, cell line number 90102540), induced with IL-1beta and IFN-gamma; crude lysate
Test: activity against the human form of induced nitric oxide synthase, lysate of induced human colon adenocarcinoma cell line DLD1
Assay type: biochemical
Details: IL-1β and IFN-γ induced, preincubated 1 hour at 37° C., then 1 hour at 37° C., read-out: IC50 (concentration of drug substance which gives 50% enzyme inhibition in the assay)
Method: Enzyme is prepared, after induction, from the cultured human colon adenocarcinoma cell line DLD1 (obtained from the European Collection of Animal Cell Culture--cell line number 90102540). DLD1 cells are cultured in RPMI 1640 medium supplemented with 10% foetal bovine serum, 4 mM L-glutamine and antibiotics (100 units/ml penicillin G, 100 μg/ml streptomycin and 0.25 μg/ml amphotericin B). Cells are routinely grown in 225 cm^3 flasks containing 35 ml kept at 37° C. and in a humified atmosphere containing 5% CO2.
Nitric oxide synthase is produced by cells in response to interferon-γ (IFN-γ) and inter-leukin-1β (IL-1β). The medium from confluent flasks is removed and replaced with 25 ml (per flask) of fresh medium containing 250 units/ml IL-1β and 1000 units/ml IFN-γ. After a period of 17-20 hours in culture, harvesting of cells is accomplished by scraping the cell monolayer from the flask surface into the culture medium. […]
Labelled L-citrulline is separated from labelled L-arginine using Dowex AG-50W. […] After allowing the samples to dry the L-citrulline is quantified by scintillation counting.
Compounds are tested at a range of concentrations and from the inhibitions obtained IC50 values are calculated.

SMILES | IC50
NC1=NC(c2ccccc2)Nc2ccccc21 (centres unmarked) [Example 1, 1,2-Dihydro-2-phenyl-4-quinazolinamine hydrochloride] | < 25 µM
CCOC(=O)NCCC1N=C(N)c2ccccc2N1 (centres unmarked) [Example 52, Ethyl N-(4-Amino-1,2-dihydroquinazolin-2-ylethyl)carbamate hydrochloride] | < 25 µM
